The target in test [1] is T1, DGKζ (hDGKzeta(1-928)-N-His) (Homo sapiens, UniProt Q13574).
T1 construct: hDGKzeta(1-928)-N-His; His (N); made in house; host or cells: Sf21 insect cells (baculovirus)
The experiment in a line: In vitro DGK inhibition assay, DGKzeta ADP Glo (in house). The conditions noted are these: 2 nM DGKζ, 50 μM ATP, 125 uM DLG in liposomes, 1 hour reaction. The class given is biochemical. Here is the method:
(§1) DGKα and ζ kinases use ATP to phosphorylate the substrate 1,2-dilauroyl-sn-glycerol (DLG, incorporated in the liposomes). ATP is converted to ADP as a result of this enzymatic reaction. After the kinase reaction, an ATP-depletion reagent is added to terminate the kinase reaction and deplete any remaining ATP, leaving only ADP. Second, a detection reagent is added to simultaneously convert ADP to ATP and allow the newly synthesized ATP to be converted to light using a coupled luciferase/luciferin reaction.
(§2) Full length DGKα and ζ were expressed in Sf21 insect cells by infecting the cells with the baculovirus stock at MOI of 2. Purification of both enzymes was performed as previously described by Takahashi et al., PeerJ, 2018 (Takahashi, D.; Sakane, F. Expression and purification of human diacylglycerol 5 kinase alpha from baculovirus-infected insect cells for structural studies. PeerJ2018, 6, No. e5449).
(§3) A concentrated liposome solution was prepared in assay buffer without DTT and BSA: 2 mM of DLG in 21 mM of total liposome (2 mM DLG/8 mM PS/11 mM PC). The reaction mixtures contain the assay buffer with a final DLG concentration of 125 uM ATP concentrations of 25 μM (for DGKA assay) or 50 μM (for DGKZ assay). The reactions were started by addition of DGK α and ζ kinases at 4 nM and 2 nM final concentrations, respectively. After 1 hour reaction, the amount of ADP formed was detected with the ADP-Glo kinase assay (Promega) according to the manufacturer instructions. Compounds were added in 11-points dose response, starting at […], 1:3 dilutions, with a final DMSO concentration of 2%. The multidrop combi was used as a liquid handler and luminescence was read with 0.5 s by the envision reader (PE).
Background: ADP-Glo turns the ADP formed in a reaction into a luminescent signal.

In test [2] the target is T2, DGKα (hDGKalpha(1-735)-N-His) (Homo sapiens, UniProt P23743).
T2 construct: hDGKalpha(1-735)-N-His; His (N); made in house; host or cells: Sf21 insect cells (baculovirus)
The experiment in a line: In vitro DGK inhibition assay, DGKalpha ADP Glo (in house). The class given is biochemical. The following applies: 4 nM DGKα, 25 μM ATP, 125 uM DLG in liposomes, 1 hour reaction. The protocol: as §1, §2, §3

The subject of a further test is primary human T-cells. The experiment in a line: Proliferation assay (5 days, CellTiter-Glo, CD3-stimulated T-cells). In kind it is cell-based. The conditions noted are these: for Emax proliferation (% activation): CD3 condition, normalised to DMSO (neutral) and 20 μM reference compound A1 = 100%; for pEC50: Homo sapiens, T-cell, 120 h, CD3-stimulated primary human T-cells, 5 days, CellTiter-Glo, fitted sigmoidal curve, read-out: Tcell Proliferation CD3 EC50. The protocol: As readouts for T-cell activation, 1L2 secretion after 24 hours and proliferation after 5 days was measured. Increases in IL2 secretion and proliferation upon compound treatment were assessed as the % of the maximum of reference compound A1. WO 2016/139181 discloses reference compound A1 as example 70. As a counter screen and to make sure that no unwanted TCR-independent activation was triggered, PBS conditions were run for all compounds.
Expanded primary human T-cells are thawed and cultured in RPMI 1640 (Gibco, #61870-010)+5% human serum (HS, Sigma, #H3667)+1 mM Sodium Pyruvate (Gibco, #11360-039)+50 μM 2-mercaptoethanol (Gibco, #31350-010) and 1× Pen-Strep (Life Technologies, #15140122) medium at density of 2 Mio/ml for 3 hours in 5% CO2, 37° C. and 95% humidity. For coating of plates, PBS++ only or PBS++ with CD3 antibody (concentration depending on donor and determined by CD3 titrations) is added 100 μl/well to Poly-D Lysine coated 96-well plates. Plates are sealed and incubated at room temperature for 3 hours on a table-top rocking platform. After incubation, plates are washed once with PBS−− and filled with 40 μl/well culture medium only. Compounds are then added (see next section) to medium only plates. After 3 hours of culturing the T-cells, cells are filtered through a cell strainer (Miltenyi Biotech, #130-041-407), counted again and concentration is adjusted to 1.25 Mio/ml.
Cells are then seeded 80 μl/well to the 40 μl/well including dispensed compounds according to plate layout. By adding cells, compounds are further diluted 1:3, and resulting in 100 k cells/120 μl/well. After 48 hours 40 μl of supernatant is collected carefully from the top while not disturbing the cells. Cells are assessed for proliferation 5 days later by measuring […] using CellTiterGlo (Promega).
Compounds were added in a 5 or 6 pt dose response with the Tecan D300e Digital Dispenser, all conditions 3 times more concentrated than the end-concentration, since cells are added afterwards (80 μl cells to 40 μl prepared medium with treatment). The DR was starting at 20 μM or 10 μM final top concentration and a dilution factor of 3.333. The positive control was the reference compound A1 that was added in a dose response as well, additionally to 3 wells of only 20 μM representing the positive stimulator control. All wells were normalized with DMSO to a final concentration of 0.6% (0.2% end-concentration).
After 5 days, for detection of ATP which is directly proportional to the number of cells present per well, the CellTiter-Glo® 2.0 Reagent is used. After visual control for toxicity or precipitations of the tested compounds, the plates are equilibrated to room temperature for 45 minutes. CellTiter-Glo® 2.0 Reagent is equilibrated to room temperature as well. After equilibration, an equal amount of CellTiter-Glo reagent is added to the cells (80 μl/well) with an electronic multichannel pipette. Plates are placed on a rocking platform for 15 minutes at room temperature. After incubation, the bottom of the plates is sealed with backing tape. Luminescence is measured with PHERAstar FSX (interval time 0.5 sec, gain 3000, focal height 15 mm) and exported as CSV file for analysis in Genedata screener.
CD3 and PBS plates were analysed separately in Genedata Screener using Roche Normalization PCT_POS_CTRL with DMSO set as Neutral Control and 20 μM of the reference compound A1 set as Stimulator Control/100%.
For CD3 conditions EC50 and Emax of the fitted sigmoidal curve were reported. If no curve could be fitted, the EC50 was reported as blank field and the Emax was based on individual data points. […] Compounds which activate unstimulated cells (see IL2 measurements) or compounds which negatively affected viability were flagged.

The text below walks through data of US20260138976A1 (Hoffmann-La Roche Inc., priority 2022, published 2026).

A word on the pIC50: it is the negative decadic logarithm of the IC50, by convention in mol/L.

pEC50, pIC50: −log10 of the molar value. Several values for one entry are separate records, joined by “and”; a condition that tells them apart may be missing. Equal values may be shown once.

T2 sequence (P23743 whole entry): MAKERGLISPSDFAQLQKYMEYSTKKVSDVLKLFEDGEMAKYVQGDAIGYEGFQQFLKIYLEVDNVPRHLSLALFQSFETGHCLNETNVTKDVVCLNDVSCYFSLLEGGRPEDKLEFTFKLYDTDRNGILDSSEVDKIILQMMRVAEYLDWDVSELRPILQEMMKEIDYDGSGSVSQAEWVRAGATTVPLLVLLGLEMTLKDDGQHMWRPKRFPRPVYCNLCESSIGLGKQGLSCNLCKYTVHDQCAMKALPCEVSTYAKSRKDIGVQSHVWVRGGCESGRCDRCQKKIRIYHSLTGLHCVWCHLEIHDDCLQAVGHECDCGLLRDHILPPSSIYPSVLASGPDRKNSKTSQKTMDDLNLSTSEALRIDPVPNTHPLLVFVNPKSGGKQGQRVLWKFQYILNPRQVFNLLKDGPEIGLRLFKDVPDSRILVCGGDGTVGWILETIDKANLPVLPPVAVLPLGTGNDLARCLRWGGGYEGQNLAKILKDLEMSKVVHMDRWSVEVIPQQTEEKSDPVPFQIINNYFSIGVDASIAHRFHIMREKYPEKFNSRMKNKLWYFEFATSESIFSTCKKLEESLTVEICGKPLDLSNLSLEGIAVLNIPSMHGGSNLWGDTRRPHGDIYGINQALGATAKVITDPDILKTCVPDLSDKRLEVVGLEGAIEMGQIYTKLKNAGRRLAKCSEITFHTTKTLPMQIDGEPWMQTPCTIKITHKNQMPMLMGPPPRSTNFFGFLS
T1 sequence (Q13574 whole entry): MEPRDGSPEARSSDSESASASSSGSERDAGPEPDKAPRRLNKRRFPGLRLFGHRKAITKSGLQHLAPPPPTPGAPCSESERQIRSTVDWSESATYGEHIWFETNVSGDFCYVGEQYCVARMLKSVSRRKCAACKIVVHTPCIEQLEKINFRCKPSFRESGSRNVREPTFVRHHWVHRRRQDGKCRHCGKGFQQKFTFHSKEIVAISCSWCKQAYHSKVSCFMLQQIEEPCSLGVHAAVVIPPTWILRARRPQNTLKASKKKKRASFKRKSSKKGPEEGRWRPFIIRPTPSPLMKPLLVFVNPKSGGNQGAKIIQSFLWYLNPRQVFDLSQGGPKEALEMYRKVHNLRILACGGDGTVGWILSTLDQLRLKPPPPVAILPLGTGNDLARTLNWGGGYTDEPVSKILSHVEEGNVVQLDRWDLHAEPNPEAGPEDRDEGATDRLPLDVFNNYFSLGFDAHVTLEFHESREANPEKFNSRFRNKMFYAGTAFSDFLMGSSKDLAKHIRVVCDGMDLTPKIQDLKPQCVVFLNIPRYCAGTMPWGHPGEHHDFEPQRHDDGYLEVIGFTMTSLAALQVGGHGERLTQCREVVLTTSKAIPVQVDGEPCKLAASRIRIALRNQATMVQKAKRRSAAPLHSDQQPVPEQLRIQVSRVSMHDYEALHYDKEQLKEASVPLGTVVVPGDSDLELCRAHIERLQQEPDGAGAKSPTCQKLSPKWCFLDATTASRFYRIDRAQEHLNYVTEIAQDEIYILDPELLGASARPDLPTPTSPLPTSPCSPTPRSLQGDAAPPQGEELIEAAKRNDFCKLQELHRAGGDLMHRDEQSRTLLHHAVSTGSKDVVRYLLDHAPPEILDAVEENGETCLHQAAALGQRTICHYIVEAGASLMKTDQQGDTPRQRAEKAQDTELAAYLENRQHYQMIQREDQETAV

Turning to `COc1ccc(-c2ccc(CN3C(=O)[C@@H](N)CS(=O)(=O)c4ccc(-c5nnc(C(C)(C)C#N)o5)cc43)cc2)cc1` [Example 45, 2-[5-[(3R)-3-amino-5-[[4-(4-methoxyphenyl)phenyl]methyl]-1,1,4-trioxo-2,3-dihydro-1λ^6,5-benzothiazepin-7-yl]-1,3,4-oxadiazol-2-yl]-2-methyl-propanenitrile], the pIC50 in test [1] was 6.33 and 5.49.

For `COC(F)(c1nnc(-c2ccc3c(c2)N(Cc2ccc(-c4ncn(C5CC5)n4)cc2)C(=O)[C@@H](N)CS3(=O)=O)o1)C(F)(F)F` (stereo partly drawn) [Example 66, (3R)-3-amino-5-[[4-(1-cyclopropyl-1,2,4-triazol-3-yl)phenyl]methyl]-1,1-dioxo-7-[5-(1,2,2,2-tetrafluoro-1-methoxy-ethyl)-1,3,4-oxadiazol-2-yl]-2,3-dihydro-1λ^6,5-benzothiazepin-4-one], the figures for the negative logarithm of the IC50 (pIC50) in test [2] and in test [1] were 4.83 and 5.18, respectively. Also, in the test with primary human T-cells, the “Emax proliferation (% activation)” value turned out to be 112 % activation. Moreover, in the test on primary human T-cells, the pEC50 is 5.89.

For `CC(C)(C#N)c1nnc(-c2ccc3c(c2)N(Cc2ccc(-c4ccc(OCC(F)(F)F)cn4)cc2)C(=O)[C@@H](N)CS3(=O)=O)o1` [Example 135, 2-[5-[(3R)-3-amino-1,1,4-trioxo-5-[[4-[5-(2,2,2-trifluoroethoxy)-2-pyridyl]phenyl]methyl]-2,3-dihydro-1λ^6,5-benzothiazepin-7-yl]-1,3,4-oxadiazol-2-yl]-2-methyl-propanenitrile], in test [2], the pIC50 was 5.76. Besides, the pIC50 in test [1] was 6.10. Further, in the test with primary human T-cells, the “Emax proliferation (% activation)” value stood at 149 % activation and the pEC50 is 6.59.

As to `CC(C)(C#N)c1nnc(-c2ccc3c(c2)N(Cc2ccc(-c4ccc(OC(F)(F)F)nc4)cc2)C(=O)[C@@H](N)CS3(=O)=O)o1` [Example 137, 2-[5-[(3R)-3-amino-1,1,4-trioxo-5-[[4-[6-(trifluoromethoxy)-3-pyridyl]phenyl]methyl]-2,3-dihydro-1λ^6,5-benzothiazepin-7-yl]-1,3,4-oxadiazol-2-yl]-2-methyl-propanenitrile], the negative logarithm of the IC50 (pIC50) in test [2] is 4.95. Also, the pIC50 in test [1] was 6.18. For the same compound, in the test on primary human T-cells, the “Emax proliferation (% activation)” value was determined as 124 % activation and the pEC50 was 6.39.

As for `CC(C)(C#N)c1nnc(-c2ccc3c(c2)N(Cc2ccc(-n4cc(OC(F)(F)F)cn4)cc2)C(=O)[C@@H](N)CS3(=O)=O)o1` [Example 138, 2-[5-[(3R)-3-amino-1,1,4-trioxo-5-[[4-[4-(trifluoromethoxy)pyrazol-1-yl]phenyl]methyl]-2,3-dihydro-1λ^6,5-benzothiazepin-7-yl]-1,3,4-oxadiazol-2-yl]-2-methyl-propanenitrile], the pIC50 in test [2] was 6.18. The compound further had a pIC50 in test [1] of 6.33. In addition, in the test with primary human T-cells, the “Emax proliferation (% activation)” value amounted to 158 % activation and the pEC50 was 7.08.

In turn, `Cc1cc(-c2ccc(CN3C(=O)[C@@H](N)CS(=O)(=O)c4ccc(-c5nnc(C(C)(C)C#N)o5)cc43)cc2)ncc1OC(F)(F)F` [Example 144, 2-[5-[(3R)-3-amino-5-[[4-[4-methyl-5-(trifluoromethoxy)-2-pyridyl]phenyl]methyl]-1,1,4-trioxo-2,3-dihydro-1λ^6,5-benzothiazepin-7-yl]-1,3,4-oxadiazol-2-yl]-2-methyl-propanenitrile] had a pIC50 in test [2] of 4.81. In addition, the pIC50 in test [1] is 6.07. In the test on primary human T-cells, the “Emax proliferation (% activation)” value amounted to 87 % activation and the pEC50 is 6.54.

Compound `CC(C)(C#N)c1nnc(-c2ccc3c(c2)N(Cc2ccc(-n4cc(C(F)(F)F)nn4)cc2)C(=O)[C@@H](N)CS3(=O)=O)o1` [Example 145, 2-[5-[(3R)-3-amino-1,1,4-trioxo-5-[[4-[4-(trifluoromethyl)triazo1-1-yl]phenyl]methyl]-2,3-dihydro-1λ^6,5-benzothiazepin-7-yl]-1,3,4-oxadiazol-2-yl]-2-methyl-propanenitrile] gave a negative logarithm of the IC50 (pIC50) in test [2] of 4.74. In addition, the pIC50 in test [1] is 6.02. For the same compound, in the test with primary human T-cells, the “Emax proliferation (% activation)” value is 86 % activation and the pEC50 is 5.37.

In test [2], `Cn1nc(OC(F)(F)F)cc1-c1ccc(CN2C(=O)[C@@H](N)CS(=O)(=O)c3ccc(-c4nnc(C(C)(C)C#N)o4)cc32)cc1` [Example 148, 2-[5-[(3R)-3-amino-5-[[4-[2-methyl-5-(trifluoromethoxy)pyrazol-3-yl]phenyl]methyl]-1,1,4-trioxo-2,3-dihydro-1λ^6,5-benzothiazepin-7-yl]-1,3,4-oxadiazol-2-yl]-2-methyl-propanenitrile] gave a negative logarithm of the IC50 (pIC50) of 6.13. In addition, the negative-log IC50 (pIC50) in test [1] is 5.98. Also, in the test on primary human T-cells, the “Emax proliferation (% activation)” value was 186 % activation and the pEC50 is 6.74.

On to `N#CC1(c2nnc(-c3ccc4c(c3)N(Cc3ccc(-c5ccc(OC(F)(F)F)cn5)cc3)C(=O)[C@@H](N)CS4(=O)=O)o2)CCOCC1` [Example 173, 4-[5-[(3R)-3-amino-1,1,4-trioxo-5-[[4-[5-(trifluoromethoxy)-2-pyridyl]phenyl]methyl]-2,3-dihydro-1λ^6,5-benzothiazepin-7-yl]-1,3,4-oxadiazol-2-yl]tetrahydropyran-4-carbonitrile], for which the pIC50 in test [2] was 5.69. The compound also had a negative logarithm of the IC50 (pIC50) in test [1] of 6.38. Also, in the test with primary human T-cells, the “Emax proliferation (% activation)” value was 101 % activation and the pEC50 was 6.63.

Consider `CC(C)(C#N)Cc1nnc(-c2ccc3c(c2)N(Cc2ccc(-c4ccc(OC(F)(F)F)cn4)cc2)C(=O)[C@@H](N)CS3(=O)=O)o1` [Example 174, 3-[5-[(3R)-3-amino-1,1,4-trioxo-5-[[4-[5-(trifluoromethoxy)-2-pyridyl]phenyl]methyl]-2,3-dihydro-1λ^6,5-benzothiazepin-7-yl]-1,3,4-oxadiazol-2-yl]-2,2-dimethyl-propanenitrile], for which the pIC50 in test [2] is 5.03; in test [1], 5.94. For the same compound, the “Emax proliferation (% activation)” value in the test on primary human T-cells amounted to 124 % activation. Besides, the pEC50 with primary human T-cells was 6.26.
